Like-named read-outs stand apart in the source and are kept apart here.
Key:
in vivo [1] = conditions: rat, po, 50 mg/kg
Source text: (§1) This oral screen is designated as phase VI.

[2] = system: Maximal electroshock seizures; test: Phase VI oral MES test, rats; type: in vivo; conditions: Rattus norvegicus, oral, 50 mg/kg, read-out: MES, animals protected/tested (converted)
Source text: (§2) Maximal electroshock seizures are elicited with a 60-cycle alternating current of 50 mA intensity (5-7 times that necessary to elicit minimal electroshock seizures) delivered via corneal electrodes for 0.2 seconds. A drop of 0.9% saline is instilled in the eye prior to application of the electrodes in order to […].
as §1

seizures = test: Anticonvulsant evaluation (ASP phase I / overall); type: in vivo, mice; conditions: Mus musculus, ip; Phase I; read-out: ASP Classification
Method in brief: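 Male Carworth Farms #1 mice; maximal electroshock seizures elicited by 60-cycle AC, 50 mA, 0.2 s via corneal electrodes after a drop of 0.9% saline in the eye. Animals observed for 30 minutes.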

electroshock seizures = test: MES maximal electroshock test, rats ip; type: in vivo; conditions: for ED50: Rattus norvegicus, ip
Source text: as §2

[3] = system: Maximal electroshock seizures; test: MES maximal electroshock seizure test, mice ip; type: in vivo; conditions: Mus musculus, ip; for responders at 100 mg/kg: read-out: MES, animals protected/tested (converted); for responders at 300 mg/kg: read-out: MES, animals protected/tested
Protocol: Three tests were performed:
1. MES--Electroshock Seizure Test
as §2

[4] = system: Subcutaneous Pentylenetetrazol seizure; test: sc Met subcutaneous pentylenetetrazol (Metrazol) seizure test, mice; type: in vivo; conditions: Mus musculus, sc, read-out: scMet, animals protected/tested (converted)
in vivo [5] = conditions: rat, ip
Protocol: (§3) The rotorod test is used to elevate neurotoxicity. The animal is placed on a 1 inch diameter knurled plastic rod rotating at 6 rpm. […] Neurologic toxicity is defined as the failure of the animal to remain on the rod for 1 minute and the results are expressed as the number of animals protected/the number of animals tested.
(§4) The toxicity evaluation for the commercial agents as previously indicated was based on the onset of ataxia.

Protocol for Neurotoxicity, rats ip: as §3, §4

COC(=O)C1C(=O)C=C(Nc2ccc(Br)cc2)CC1C (centres unmarked) [Compound 113]
Tox, animals exhibiting neurotoxicity/tested (Neurotoxicity, rats ip; 100 mg/kg, 2.00 h (Table VIII)): 0/8 | Tox, animals exhibiting neurotoxicity/tested (Neurotoxicity, rats ip; 180 mg/kg, 2.00 h (Table VII)): 2/4 | Tox, animals exhibiting neurotoxicity/tested (Neurotoxicity, rats ip; 180 mg/kg, 2.00 h (Table VIII)): 2/8 | Tox, animals exhibiting neurotoxicity/tested (Neurotoxicity, rats ip; 180 mg/kg, 4.00 h): 1/8 | Tox, animals exhibiting neurotoxicity/tested (Neurotoxicity, rats ip; 220 mg/kg, 0.25 h): 0/8 | Tox, animals exhibiting neurotoxicity/tested (Neurotoxicity, rats ip; 220 mg/kg, 0.50 h): 0/8 | Tox, animals exhibiting neurotoxicity/tested (Neurotoxicity, rats ip; 220 mg/kg, 1.00 h): 1/8 | Tox, animals exhibiting neurotoxicity/tested (Neurotoxicity, rats ip; 220 mg/kg, 2.00 h): 4/8 | Tox, animals exhibiting neurotoxicity/tested (Neurotoxicity, rats ip; 220 mg/kg, 2.00 h (Table VIII)): 4/8 | Tox, animals exhibiting neurotoxicity/tested (Neurotoxicity, rats ip; 220 mg/kg, 6.00 h): 0/8 | Tox, animals exhibiting neurotoxicity/tested (Neurotoxicity, rats ip; 220 mg/kg, 24.00 h): 0/8 | Tox, animals exhibiting neurotoxicity/tested (Neurotoxicity, rats ip; 440 mg/kg, 2.00 h): 6/8 | Tox, animals toxic/tested (in vivo [1]): 0/4 | responders at 50 mg/kg ([2]; 0.5 h, 0.50 h): 100% | responders at 50 mg/kg ([2]; 0.25 h): 75% | responders at 50 mg/kg ([2]; 1.00 h): 100% | responders at 50 mg/kg ([2]; 2.00 h): 100% | responders at 50 mg/kg ([2]; 4.00 h): 100% | minimal effective dose (seizures): < 100 mg/kg | MES, animals protected/tested (electroshock seizures; 1.2 mg/kg, 0.25 h): 0/8 | MES, animals protected/tested (electroshock seizures; 3.6 mg/kg, 0.25 h): 5/8 | MES, animals protected/tested (electroshock seizures; 4.5 mg/kg, 0.25 h): 3/8 | MES, animals protected/tested (electroshock seizures; 4.8 mg/kg, 0.25 h): 3/4 | MES, animals protected/tested (electroshock seizures; 4.8 mg/kg, 0.50 h): 3/4 | MES, animals protected/tested (electroshock seizures; 4.8 mg/kg, 1.00 h): 2/4 | MES, animals protected/tested (electroshock seizures; 6.0 mg/kg, 0.25 h): 3/4 | MES, animals protected/tested (electroshock seizures; 6.0 mg/kg, 0.50 h): 2/4 | MES, animals protected/tested (electroshock seizures; 6.0 mg/kg, 1.00 h): 3/4 | MES, animals protected/tested (electroshock seizures; 6.0 mg/kg, 2.00 h): 0/4 | MES, animals protected/tested (electroshock seizures; 7.0 mg/kg, 0.25 h): 7/8 | ED50 (electroshock seizures; 0.25 h): 4 mg/kg | responders at 100 mg/kg ([3]; 0.5 h, 30 min): 100% | responders at 300 mg/kg ([3]; 0.5 h, 30 min): 100% | responders at 100 mg/kg ([3]; 4 h, 4 h): 100% | responders at 300 mg/kg ([3]; 4 h, 4 h): 100% | responders at 100 mg/kg ([4]; 0.5 h, 30 min): 0% | responders at 300 mg/kg ([4]; 0.5 h, 30 min): 40% | responders at 100 mg/kg ([4]; 4 h, 4 h): 0% | responders at 300 mg/kg ([4]; 4 h, 4 h): 0% | TD50 at 2 h (in vivo [5]): 270 mg/kg | selectivity ratio (in vivo [5]): 67.4

COC(=O)C1C(=O)C=C(Nc2ccc(C(F)(F)F)cc2)CC1C (centres unmarked) [Compound 115]
Tox, animals exhibiting neurotoxicity/tested (Neurotoxicity, rats ip; 8 mg/kg, 0.25-24 h): 0/2 | Tox, animals exhibiting neurotoxicity/tested (Neurotoxicity, rats ip; 16 mg/kg, 0.25-24 h): 0/2 | Tox, animals exhibiting neurotoxicity/tested (Neurotoxicity, rats ip; 32 mg/kg, 0.25-24 h): 0/2 | Tox, animals exhibiting neurotoxicity/tested (Neurotoxicity, rats ip; 64 mg/kg, 0.25-24 h): 0.2 | Tox, animals toxic/tested (in vivo [1]): 0/4 | responders at 50 mg/kg ([2]; 0.5 h, 0.50 h): 100% | responders at 50 mg/kg ([2]; 0.25 h): 75% | responders at 50 mg/kg ([2]; 1.00 h): 100% | responders at 50 mg/kg ([2]; 2.00 h): 100% | responders at 50 mg/kg ([2]; 4.00 h): 100% | minimal effective dose (seizures): < 100 mg/kg | MES, animals protected/tested (electroshock seizures; 1.0 mg/kg, 0.50 h): 0/8 | MES, animals protected/tested (electroshock seizures; 2.0 mg/kg, 0.50 h (Table VII)): 1/4 | MES, animals protected/tested (electroshock seizures; 2.0 mg/kg, 0.50 h (Table VIII)): 3/8 | MES, animals protected/tested (electroshock seizures; 2.0 mg/kg, 1.00 h): 1/4 | MES, animals protected/tested (electroshock seizures; 3.0 mg/kg, 0.50 h): 3/8 | MES, animals protected/tested (electroshock seizures; 3.5 mg/kg, 0.50 h): 4/8 | MES, animals protected/tested (electroshock seizures; 4.0 mg/kg, 0.25 h): 2/4 | MES, animals protected/tested (electroshock seizures; 4.0 mg/kg, 0.50 h (Table VII)): 3/4 | MES, animals protected/tested (electroshock seizures; 4.0 mg/kg, 0.50 h (Table VIII)): 7/8 | MES, animals protected/tested (electroshock seizures; 4.0 mg/kg, 1.00 h): 3/4 | MES, animals protected/tested (electroshock seizures; 4.0 mg/kg, 2.00 h): 2/4 | ED50 (electroshock seizures; 0.5 h, 0.50 h): 2.95 mg/kg | responders at 100 mg/kg ([3]; 0.5 h, 30 min): 100% | responders at 300 mg/kg ([3]; 0.5 h, 30 min): 100% | responders at 100 mg/kg ([3]; 4 h, 4 h): 33.3% | responders at 300 mg/kg ([3]; 4 h, 4 h): 100% | responders at 100 mg/kg ([4]; 0.5 h, 30 min): 0% | responders at 300 mg/kg ([4]; 0.5 h, 30 min): 40% | responders at 100 mg/kg ([4]; 4 h, 4 h): 0% | responders at 300 mg/kg ([4]; 4 h, 4 h): 0% | TD50 (in vivo [5]): > 64 mg/kg | selectivity ratio (in vivo [5]): > 21.7
